The conditions of test [1]: from U.S. Patent 4,992,417 and PCT/US88/02289; cited from earlier work.
A further test deals with insulin receptors. Kind of test: Insulin receptor binding assay (inhibition of specific 125I-insulin binding, rat liver plasma membrane fraction). The following applies: concentration ratio of unlabelled insulin to analogue required to inhibit 50% of specific 125I-insulin binding; rat liver plasma membranes, 45 min at 24°C, pH 7.4. Here is the method: Although insulin analogues, in general, maintain some residual insulin activity, the potency of such analogues is usually only a fraction of that of natural insulins. The potency of human, bovine and porcine insulins in USP standards is about 25-26 IU (international units) per mg protein. […]
Briefly, triplicate 0.2ml incubations contained ¹²⁵I-insulin, 3 x 10⁻¹⁰M, unlabelled insulin or [Trp¹⁴-A] insulin prepared as in Example 1, and plasma membranes (20-40 »g of protein) in 0.1 M sodium phosphate, pH 7.4, containing 0.6% fraction V bovine serum albumin. […] The filters were washed twice with the ice cold buffer, dried, and then radioactivity was counted in a scintillation counter using Filtron-X®. […]

Another test has as its system rat adipocytes. The test can be described thus: Lipogenesis assay (conversion of [3-3H] glucose into lipids in isolated adipocytes). Conditions: for potency in lipogenesis compared to the natural hormone: concentration ratio of bovine insulin to analogue producing 50% of maximum stimulation of lipogenesis. The test is classed as cell-based. The text has this: (§1) Although insulin analogues, in general, maintain some residual insulin activity, the potency of such analogues is usually only a fraction of that of natural insulins. The potency of human, bovine and porcine insulins in USP standards is about 25-26 IU (international units) per mg protein. Standard assay for measuring insulin potency include inter alia (1) insulin radioreceptorassays, in which the relative potency of an insulin is defined as the ratio of insulin to insulin analogue required to displace 50% of ¹²⁵I-insulin specifically bound to insulin receptors present on cell membranes, e.g. a rat liver plasma membrane fraction, isolated rat adipocytes, or isolated rat hepatocytes; (2) lipogenesis assays, performed e.g. with rat adipocytes, in which relative insulin potency is defined as the ratio of insulin to insulin analogue required to achieve 50% of the maximum conversion of [3-³H] glucose into organic-extractable material (i.e. lipids); (3) glucose oxidation assays in isolated fat cells in which the relative potency of the insulin analogue is defined as the ratio of insulin to insulin analogue to achieve 50% of the maximum conversion of glucose-1-[¹⁴C] into [¹⁴CO₂]; (4) insulin radioimmunoassays which can determine the immunogenicity of insulin analogues by measuring the effectiveness by which insulin or an insulin analogue competes with ¹²⁵I-insulin in binding to specific anti-insulin antibodies; (5) inhibition of gluconeogenesis performed on confluent monolayers of a well differentiated hepatoma cell line (FAO) in which inhibition of glucose secretion into the medium is determined as a function of the concentration of insulin or insulin analogue.
In this Example the materials used and the analytical procedures followed are those found in Kitagawa et al., Biochemistry, 23: 1405-1413 (1984). ¹²⁵I-insulin for receptor binding studies and [3-³H] glucose for lipogenesis were obtained from DuPont NEN Research Products. Cellulose acetate membrane filters, 0.2 »m pore size, were products of Sartorius. Glass-fiber filters, Type GFC, were from Whatman. Collagenase, Type II crude, was obtained from Worthington. […]
These assays measured the ability of the insulin analogue as compared to bovine insulin to convert [3-³H] glucose into lipids.
Adipocytes were prepared by incubating epididymal and perirenal fat pads obtained from male rats weighing 200-300 g with 1.0 mg/ml collagenase for 60 min at 37°C, followed by filtration through gauze and then through fine-mesh silk. […] Samples were extracted with 10 ml of Soluscint-0® for 30 min at room temperature before counting the radioactivity in a scintillation counter. […] Zero and 100% stimulation of lipogenesis were defined as radioactivity observed in the absence and presence, respectively, of 9.1 x 10⁻¹⁰M insulin (5.5 ng/ml). […]

A further test concerns FAO cells. Kind of test: Inhibition of gluconeogenesis assay (glucose secretion by confluent hepatoma cell monolayers). The class given is cell-based. Conditions: for potency in inhibiting gluconeogenesis relative to the natural hormone: ratio of concentration of insulin to analogue producing half-maximal inhibition of glucose production, FAO hepatoma cells.
Text: as §1
This assay was carried out on confluent monolayers of a well differentiated hepatoma cell line (Lauris et al. Endocrinology 118:2519-2524 (1986)) in which glucose production was monitored with a commercial glucose oxidase kit (Sigma kit no. 510-A, Sigma Technical Bulletin 510, 1983). Inhibition of glucose secretion into the medium was determined as a function of the concentration of insulin or insulin analogue, and the relative potency of the analogue was defined as the ratio of the concentration of insulin to analogue required to produce half-maximal inhibition of glucose production. The cell culture and glucose production was carried out as described by Lauris et al., supra.
The potency of the synthetic insulin in inhibiting gluconeogenesis is calculated to be about 90% relative to the natural hormone.

For test [2] the following is noted: from W. Danho et al., Chemical Abstracts 94: 47733x; cited from earlier work.
[3] abbreviates: compared with insulin, FAO cells.

Regarding [10-Aspartic Acid-B] human insulin, in test [1], the “potency relative to natural insulins” value was 4 to 5 times.

Take [Trp¹⁴-A] insulin: the “potency of that of the natural hormone (relative potency, receptor binding)” value in the test on insulin receptors was “about 60%”. In addition, in the test with rat adipocytes (compared with bovine insulin), the “concentration of agonist producing half-maximal stimulation of lipogenesis” value was “about twice the concentration of agonist”. For the same substance, in the test on rat adipocytes (compared with bovine insulin), the “maximum stimulation of lipogenesis” value is recorded as “same maximum stimulation of lipogenesis”. Besides, the entries for the “potency in lipogenesis compared to the natural hormone” value in the test with rat adipocytes and with rat adipocytes (listed as synthetic insulin) were “about 60%” and “approximately 60%”, respectively. In addition, the “concentration of agonist producing half-maximal inhibition of gluconeogenesis” value in the test on FAO cells (setting [3]) is “approximately the same concentration of agonist”. For the same substance, the “maximum inhibition of gluconeogenesis” value in the test on FAO cells (setting [3]) is reported as “same maximum inhibition of gluconeogenesis”. Besides, the “potency in inhibiting gluconeogenesis relative to the natural hormone” value with FAO cells is given as 90%; in the test on FAO cells (listed as [Trp ¹⁴-A] insulin), “about 90%”.

For porcine A14-phenylalanine insulin, the “biological activity compared with native insulin” value in test [2] was “virtually the same biological activity as native insulin”.

These data come from patent EP0469084B1, “HEPATOSPECIFIC INSULIN ANALOGUES” (MOUNT SINAI SCHOOL OF MEDICINE OF THE CITY UNIVERSITY OF …, priority 1989, dated 1995).
